Source: patent publication US9765069B2, “Antimicrobial compounds” (OXFORD UNIVERSITY INNOVATION LIMITED, priority 2012, dated 2017)
In brackets after ≈: the same amount, converted by molar mass.

What was measured:
[1] = tested on: H3; experiment: MIC determination (bacteria), strain H3; format: cell-based, H. influenzae; settings: haemophilus test medium; for MIC: Haemophilus influenzae
Protocol: (§1) MIC determination (bacteria); MICs were determined based on Clinical and Laboratory Standards Institute (CLSI) methodology (Methods for dilution antimicrobial susceptibility tests for bacteria that grow aerobically; Approved Standard—seventh edition. 2006, M7-A7, CLSI, Wayne Pa.) by a 2-fold broth dilution technique in Mueller Hinton (pH7.4 Biorad). For S. pneumoniae, the medium was supplemented with 2.5% laked horse blood. For H. influenzae, the medium was haemophilus test medium (H.T.M.). Overnight cultures were diluted to obtain the final inoculum of 10^5 cfu/well. Incubation was 37° C. overnight in ambient air. The MIC was defined as the lowest concentration which inhibited all visual growth and expressed in μg/ml. For each bacterial species, all of the molecules were tested in the same experiment in order to give a head-to-head comparison.

[2] = tested on: S4; experiment: MIC determination (bacteria), strain S4; format: cell-based, S. aureus; settings: 2-fold broth dilution; for MIC: Staphylococcus aureus
Protocol: as §1

[3] = tested on: P9; experiment: MIC determination (bacteria), strain P9; format: cell-based, S. pneumoniae; settings: 2-fold broth dilution; for MIC: Streptococcus pneumoniae
Protocol: as §1

[4] = tested on: S1; experiment: MIC determination (bacteria), strain S1; format: cell-based, S. aureus; settings: 2-fold broth dilution; for MIC: Staphylococcus aureus
Protocol: as §1

[5] = tested on: H4; experiment: MIC determination (bacteria), strain H4; format: cell-based, H. influenzae; settings: haemophilus test medium; for MIC: Haemophilus influenzae
Protocol: as §1

[6] = tested on: mammalian_red blood cell membrane; experiment: In vitro mammalian red blood cell membrane lysis activity; format: cell-based; settings: Active or inactive at 100 μM
Excerpt: (§2) These properties can be determined according to techniques that are well known in the art.

[7] = tested on: S2 (S. aureus 2, MRSA in vivo); experiment: MIC determination (bacteria), strain S2; format: cell-based; settings: 2-fold broth dilution; for MIC: Staphylococcus aureus, MRSA
Protocol: as §1

[8] = tested on: human peripheral blood cells; experiment: in vitro toxicities human peripheral blood cells; format: cell-based; settings: human peripheral blood cells
Excerpt: as §2

[9] = tested on: E1; experiment: MIC determination (bacteria), strain E1; format: cell-based, enterococcus; settings: 2-fold broth dilution; for MIC: Enterococcus
Protocol: as §1

[10] = tested on: P1; experiment: MIC determination (bacteria), strain P1; format: cell-based, S. pneumoniae; settings: 2-fold broth dilution; for MIC: Streptococcus pneumoniae
Protocol: as §1

[11] = tested on: S. aureus membrane; experiment: In vitro activity in depolarization of S. aureus membrane; format: cell-based; settings: read-out: DEP (IC50)
Excerpt: as §2

[12] = tested on: human embryonic kidney 293 cells; experiment: in vitro toxicities against human embryonic kidney 293 cells; format: cell-based; settings: human embryonic kidney 293 cells
Excerpt: as §2

[13] = tested on: E2; experiment: MIC determination (bacteria), strain E2; format: cell-based, enterococcus; settings: 2-fold broth dilution; for MIC: Enterococcus
Protocol: as §1

[14] = tested on: P9B; experiment: MIC determination (bacteria), strain P9B; format: cell-based, S. pneumoniae; settings: 2-fold broth dilution; for MIC: Streptococcus pneumoniae
Protocol: as §1

[15] = tested on: S26; experiment: MIC determination (bacteria), strain S26; format: cell-based, S. aureus; settings: 2-fold broth dilution; for MIC: Staphylococcus aureus
Protocol: as §1

| SMILES | MIC H3 ([1]; Table 2) [µg/mL] | MIC S4 ([2]; Table 2) [µg/mL] | MIC P9 ([3]; Table 2) [µg/mL] | MIC S1 ([4]; Table 2) [µg/mL] | MIC H4 ([5]; Table 2 and its footnote f) [µg/mL] | MIC S2 ([7]; Table 2) [µg/mL] | MIC E1 ([9]; Table 2) [µg/mL] | MIC P1 ([10]; Table 2) [µg/mL] | MIC E2 ([13]; Table 2) [µg/mL] | MIC P9B ([14]; Table 2) [µg/mL] | MIC S26 ([15]; Table 2) [µg/mL] | also measured |
| --- | --- | --- | --- | --- | --- | --- | --- | --- | --- | --- | --- | --- |
| CCCCCCCC=CC(=O)N1C(=O)C(=C(C)O)C(=O)C1CC(C)C (stereo not shown) [23a] | – | – | – | – | – | – | – | – | – | – | – | MIC H3 ([1]; Table 1): 64 µg/mL (≈ 183 µM); MIC S4 ([2]; Table 1): 8 µg/mL (≈ 22.9 µM); MIC P9 ([3]; Table 1): 1 µg/mL (≈ 2.86 µM); MIC S1 ([4]; Table 1): 8 µg/mL (≈ 22.9 µM); MIC H4 ([5]; Table 1): 4 µg/mL (≈ 11.4 µM); RBC membrane lysis activity (active/inactive) [6]: Inactive^d; MIC S2 ([7]; Table 1): 8 µg/mL (≈ 22.9 µM); PMBC (LD50, μM) [8]: 90.9 µM; MIC E1 ([9]; Table 1): 8 µg/mL (≈ 22.9 µM); MIC P1 ([10]; Table 1): 2 µg/mL (≈ 5.72 µM); IC50 [11]: 88 µM; Hek293 (LD50, μM) [12]: 90.9 µM; MIC E2 ([13]; Table 1): 4 µg/mL (≈ 11.4 µM); MIC P9B ([14]; Table 1): 4 µg/mL (≈ 11.4 µM); MIC S26 ([15]; Table 1): 16 µg/mL (≈ 45.8 µM) |
| CCCC(=O)N1CC(=O)C(=C(O)CC23CC4CC(CC(C4)C2)C3)C1=O [27j] | 16 (≈ 46.3 µM) | 16 (≈ 46.3 µM) | 4 (≈ 11.6 µM) | 16 (≈ 46.3 µM) | 4 (≈ 11.6 µM) | 16 (≈ 46.3 µM) | 8 (≈ 23.2 µM) | 4 (≈ 11.6 µM) | 8 (≈ 23.2 µM) | 4 (≈ 11.6 µM) | 16 (≈ 46.3 µM) | – |
| Cc1ccccc1C(=O)N1CC(=O)C(=C(O)CCCCC2CCCCC2)C1=O [27s] | 32 (≈ 83.4 µM) | 16 (≈ 41.7 µM) | 2 (≈ 5.22 µM) | 16 (≈ 41.7 µM) | 4 (≈ 10.4 µM) | 16 (≈ 41.7 µM) | 8 (≈ 20.9 µM) | 2 (≈ 5.22 µM) | 8 (≈ 20.9 µM) | 16 (≈ 41.7 µM) | 16 (≈ 41.7 µM) | – |
| CCCCCCC(=O)N1CC(=O)C(=C(O)CCc2ccc(SC)cc2)C1=O [28d] | 4 (≈ 10.3 µM) | 16 (≈ 41.1 µM) | 0.5 (≈ 1.28 µM) | 4 (≈ 10.3 µM) | 1 (≈ 2.57 µM) | 8 (≈ 20.5 µM) | 1 (≈ 2.57 µM) | 0.5 (≈ 1.28 µM) | 2 (≈ 5.13 µM) | 4 (≈ 10.3 µM) | 32 (≈ 82.2 µM) | – |
| CCCCCCC(=O)N1CC(=O)/C(=C(/O)CO[C@H]2C[C@@H](C)CC[C@@H]2C(C)C)C1=O [27n] | – | – | – | – | – | – | – | – | – | – | – | MIC ([1]; Table 2): > 64 µg/mL; MIC ([2]; Table 2): > 64 µg/mL; MIC ([3]; Table 2): 0.5 µg/mL (≈ 1.23 µM); MIC ([4]; Table 2): > 64 µg/mL; MIC ([5]; Table 2 and its footnote f): 2 µg/mL (≈ 4.91 µM); MIC ([7]; Table 2): > 64 µg/mL; MIC ([9]; Table 2): 8 µg/mL (≈ 19.6 µM); MIC ([10]; Table 2): 0.5 µg/mL (≈ 1.23 µM); MIC ([13]; Table 2): 2 µg/mL (≈ 4.91 µM); MIC ([14]; Table 2): 8 µg/mL (≈ 19.6 µM); MIC ([15]; Table 2): > 64 µg/mL |
| CCCCCCC(=O)N1CC(=O)C(=C(O)CC2CCCCC2)C1=O [27b] | 4 (≈ 11.9 µM) | 4 (≈ 11.9 µM) | 0.5 (≈ 1.49 µM) | 2 (≈ 5.96 µM) | 0.5 (≈ 1.49 µM) | 4 (≈ 11.9 µM) | 2 (≈ 5.96 µM) | 1 (≈ 2.98 µM) | 2 (≈ 5.96 µM) | 2 (≈ 5.96 µM) | 4 (≈ 11.9 µM) | – |
| CSCCC1C(=O)/C(=C(/O)CC(C)(C)CC(=O)OCCC23CC4CC(CC(C4)C2)C3)C(=O)N1C(C)=O (stereo not shown) [31i] | – | – | – | – | – | – | – | – | – | – | – | MIC ([1]; Table 2): > 64 µg/mL; MIC ([2]; Table 2): 16 µg/mL (≈ 30.8 µM); MIC ([3]; Table 2): 1 µg/mL (≈ 1.92 µM); MIC ([4]; Table 2): 8 µg/mL (≈ 15.4 µM); MIC ([5]; Table 2 and its footnote f): 8 µg/mL (≈ 15.4 µM); MIC ([7]; Table 2): 8 µg/mL (≈ 15.4 µM); MIC ([9]; Table 2): 2 µg/mL (≈ 3.85 µM); MIC ([10]; Table 2): 2 µg/mL (≈ 3.85 µM); MIC ([13]; Table 2): 1 µg/mL (≈ 1.92 µM); MIC ([14]; Table 2): 4 µg/mL (≈ 7.7 µM); MIC ([15]; Table 2): > 64 µg/mL |
| O=C1CCN(C(=O)c2ccccc2)C(=O)/C1=C(\O)CCc1ccc(-c2ccccc2C(F)(F)F)o1 [19e] | >64 | 4 (≈ 8.27 µM) | 2 (≈ 4.14 µM) | 4 (≈ 8.27 µM) | 16 (≈ 33.1 µM) | 4 (≈ 8.27 µM) | 2 (≈ 4.14 µM) | 2 (≈ 4.14 µM) | 2 (≈ 4.14 µM) | 8 (≈ 16.5 µM) | 4 (≈ 8.27 µM) | – |
| CCCCCC(O)=C1C(=O)C(CCSC)N(C(=O)C2CCCCC2)C1=O (stereo not shown) [24d] | – | – | – | – | – | – | – | – | – | – | – | MIC H3 ([1]; Table 1): 32 µg/mL (≈ 83.9 µM); MIC S4 ([2]; Table 1): 2 µg/mL (≈ 5.24 µM); MIC P9 ([3]; Table 1): 2 µg/mL (≈ 5.24 µM); MIC S1 ([4]; Table 1): 2 µg/mL (≈ 5.24 µM); MIC H4 ([5]; Table 1): 4 µg/mL (≈ 10.5 µM); MIC S2 ([7]; Table 1): 4 µg/mL (≈ 10.5 µM); MIC E1 ([9]; Table 1): 2 µg/mL (≈ 5.24 µM); MIC P1 ([10]; Table 1): 2 µg/mL (≈ 5.24 µM); MIC E2 ([13]; Table 1): 2 µg/mL (≈ 5.24 µM); MIC P9B ([14]; Table 1): 4 µg/mL (≈ 10.5 µM); MIC S26 ([15]; Table 1): 4 µg/mL (≈ 10.5 µM) |
